Results published in patent publication US12427138B2, “Treatment of Meniere's disease” (SOUND PHARMACEUTICALS INCORPORATED, priority 2016, dated 2025).
“Also recorded” adds a separate entry of the source.

Legend:
[1] = 25° Celsius; cited from earlier work
[2] = tested on: adults with Meniere's disease; assay: Phase 1b clinical study: pure-tone audiometry (PTA), low frequency hearing; type: in vivo, human
Experimental: (§1) The general approach for the investigation of the safety and efficacy of SPI-1005 for Meniere's disease is conducting this phase lb, safety, pharmacokinetic and pharmacodynamic study in 40 adults with Meniere's disease. The study is evaluating escalating doses of SPI-1005 at 200, 400 or 600 mg po BID versus placebo for twenty-one days for impact on pure-tone audiometry, speech discrimination, electrocochleography, and patient-reported outcomes using validated questionnaires for assessing vertigo and tinnitus (Hornibrook, et al., 2012; Meikle, et al., 2011; Yardley, et al., 2004). This study is ongoing and being conducted in compliance with the protocol, Good Clinical Practice (GCP) and the applicable regulatory requirements.
(§2) The effect of SPI-1005 on hearing and vertigo was evaluated at baseline, at the end of 21 days of treatment and 28 days after completing treatment. Tinnitus was evaluated at baseline, weekly during treatment, and 7 and 28 days after treatment. Hearing was evaluated using pure-tone audiometric testing at 0.25, 0.5, 1, 2, 3, 4, 6, and 8 kHz, and speech discrimination using the WINT at 24, 20, 16, 12, 8, 4, and 0 Signal-to-Noise ratio (SNR). The severity of vertigo was assessed using the VSS. The severity of tinnitus was assessed using the TFI. In addition, ECochG was conducted at baseline, at the end of treatment and 28 days after completing treatment in order to measure the pharmacodynamic response.
(§3) Audiological evaluations were performed at specified intervals to evaluate the efficacy of SPI-1005. […] These were scored by study personnel. […]
(§4) Audiometric data were collected in the form of categorical and continuous variables. Categorical data were analyzed using the chi-square distribution. Continuous data were analyzed using mixed-effects multiple-repeated measures, and post-hoc analysis, when necessary, was adjusted using Bonferroni applications. Non-parametric tests included the Mann-Whitney U. Calculated p-values were considered statistically significant at or below an alpha value of 0.05. […]

[3] = tested on: cochlea following noise- or ototoxin-induced injury; conditions: preclinical animal studies; cited from earlier work
[4] = tested on: adults with Meniere's disease; assay: Phase 1b clinical study: Tinnitus Loudness (TL) visual analogue scale; type: in vivo, human
Experimental: as §1
Multiple clinical assessments and analysis of auditory and vestibular function • Pure tone audiometry and word recognition scores: Baseline, 21d tx, and 28d post-tx • Hearing loss is typically unilateral and low frequency (0.25, 0.5 and 1 kHz) • Significant hearing improvement ≥10 dB reduction from baseline • Words in noise tests (WINT) 35 words under 7 different SNRs to each ear (0-35) • Significant WINT improvement ≥10% increase from baseline • Tinnitus Functional Index (TFI) : Baseline, and 7d, 14d and 21d tx, and 7d and 28d post-tx • 25 questions answered by patient regarding their tinnitus severity (0-100) • Significant TFI improvement ≥10 pt reduction from baseline • Tinnitus Loudness (TL) answered by patient on a visual analogue scale (0-10) • Significant TL improvement ≥2 pt reduction from baseline • Vertigo Symptom Scale (VSS): Baseline, 21d tx, and 28d post-tx • 15 questions answered by patient regarding their vertigo severity (0-60) • Significant VSS improvement ≥6 pt reduction from baseline

[5] = tested on: adults with Meniere's disease; assay: Phase 1b clinical study: Tinnitus Functional Index (TFI); type: in vivo, human
Experimental: as §1, with “This study is ongoing and being conducted in compliance with the protocol, Good Clinical Practice (GCP) and the applicable regulatory requirements.” left out
as §2, with “In addition, ECochG was conducted at baseline, at the end of treatment and 28 days after completing treatment in order to measure the pharmacodynamic response.” left out
as §3

[6] = tested on: adults with Meniere's disease; assay: Phase 1b clinical study: safety and tolerability of SPI-1005; type: in vivo, human; conditions: first two cohorts (26 of 40 subjects); for safety and tolerability: oral dosing BID for 21 days
Experimental: as §1
The safety and tolerability of SPI-1005 is being determined by examining the toxicities and adverse events that are attributable to treatment. […]
Before, during, and for 28 days after administration of SPI-1005, patients were evaluated for safety by history, physical examination, vital signs and blood tests (complete blood count [CBC], Chemistry-20 [Chem-20]). Peak and trough plasma levels of ebselen and its major metabolite were determined using liquid chromatography-mass spectrometry (LCMS) at certain time points. Additionally, plasma was analyzed by High Performance Liquid Chromatography-Inductively Coupled Plasma-Mass Spectrometry (HPLC-ICP-MS) for total selenium at the corresponding time points. Patients were monitored for adverse events at each clinic visit. Female patients received pregnancy testing, and those found to be pregnant were excluded or discontinued from the study and monitored for adverse events. […]
History and physical examinations, vital signs and analysis of lab reports were performed to evaluate the safety of SPI-1005. […] Blood test results were analyzed according to currently established laboratory norms. […]
Blood testing was performed at specified intervals to evaluate the safety of SPI-1005. […] Blood was collected and shipped to a designated CRO(s) to quantify ebselen, ebselen metabolite, and total selenium. […]

[7] = tested on: adults with Meniere's disease; assay: Phase 1b clinical study: initial analysis of efficacy, secondary endpoints versus placebo; type: in vivo, human; conditions: two analyzed cohorts
Experimental: as §1, with “requirements. […]” for “requirements.”
Study participants were been randomized to SPI-1005 or placebo in this double-blind, dose-escalation study to evaluate its safety and preliminary efficacy. Patients, aged 19-70 years, with probable or definite Meniere's disease have undergone baseline testing to have their severity of sensorineural hearing loss, tinnitus and vertigo determined before the start of study treatment (see Table 3: Schedule of Assessments). […]

[8] = tested on: cytochrome-C release from mitochondria; conditions: during lipid peroxidation; Namura et al., 2001; cited from earlier work
[9] = tested on: adults with Meniere's disease; assay: Phase 1b clinical study: Vertigo Symptom Scale (VSS); type: in vivo, human
Experimental: as §1, with “This study is ongoing and being conducted in compliance with the protocol, Good Clinical Practice (GCP) and the applicable regulatory requirements.” left out
as §2, with “In addition, ECochG was conducted at baseline, at the end of treatment and 28 days after completing treatment in order to measure the pharmacodynamic response.” left out
as §3

[10] = Noguchi et al., 1992; 1994; cited from earlier work
[11] = tested on: adults with Meniere's disease; assay: Phase 1b clinical study: speech discrimination, Words-in-Noise Test (WINT) / word recognition scores; type: in vivo, human
Experimental: as §1, §2, §3, §4

O=c1c2ccccc2[se]n1-c1ccccc1 [ebselen, 2-phenyl-1,2-benzisoselenazol-3(2H)-one]
solubility in aqueous solutions [1]: slightly soluble
highest improvement in low frequency (0.25, 0.5, and 1 kHz) hearing ([2]; PTA, oral dosing 21 days, first two cohorts): ≤ 35 dB
PTA improvement, actives vs placebos ([2]; first two cohorts): significant and specific to actives vs placebos
share of actives with significant hearing improvement ≥10 dB ([2]; ≥10 dB reduction from baseline, no significant improvement in placebos): 60%
effect on pathologic changes in the cochlea [3]: prevent or reverse the pathologic changes in the cochlea
TL improvement, actives vs placebo ([4]; human, in vivo): greater in actives than placebo
share of actives with significant TL improvement ≥2 pt reduction ([4]; placebo 33%): 70%
highest improvement in tinnitus loudness (reduction) ([4]; scale 0-10): ≤ 8 pt
share of actives with significant TFI improvement ≥10 pt reduction ([5]; placebo 50%): 40%
highest improvement in TFI score (reduction) ([5]; scale 0-100): ≤ 62 pt
drug-related adverse events [6]: no drug-related adverse events have occurred
safety and tolerability [6]: safe and well tolerated
safety and tolerability ([6]; listed as SPI-1005): well tolerated with no adverse events due to study drug
clinical efficacy (hearing, tinnitus, vertigo) versus placebo [7]: achieved several secondary endpoints versus placebo; also recorded: good clinical efficacy
clinical efficacy (hearing, tinnitus, vertigo) versus placebo ([7]; listed as Ebselen): clinically relevant improvements in hearing, tinnitus and vertigo
effect on cytochrome-C release from mitochondria and nuclear damage [8]: reduces cytochrome-C release from mitochondria and nuclear damage
VSS improvement, actives vs placebo ([9]; human, in vivo): greater in actives than placebo
share of actives with significant VSS improvement ≥6 pt reduction ([9]; placebo 33%): 55%
activity against peroxynitrite [10]: strong activity against peroxynitrite
WINT improvement, actives vs placebos ([11]; first two cohorts): significant and specific to actives vs placebos
highest improvement over baseline WRS ([11]; word recognition scores, oral dosing 21 days): ≤ 120%
share of actives with significant WINT improvement ≥10% increase ([11]; ≥10% increase from baseline, no significant improvement in placebos): 35%
